Assay [1] addresses Norepinephrine transporter (Rattus norvegicus, UniProt Q9WTR4). The assay can be described thus: Displacement of [3H]nisoxetine from norepinephrine transporter of rat cerebral cortex. It counts as tissue-based.
Assay [2] concerns the target Monoamine transporters; Norepinephrine & serotonin (Rattus norvegicus) (UniProt P31652+Q9WTR4). The assay can be described thus: Selectivity for inhibition of serotonin and norepinephrine transporters. It counts as protein assay.
Assay [3] addresses Sodium-dependent serotonin transporter (Rattus norvegicus, UniProt P31652). The assay is described as follows: Displacement of [3H]paroxetine from serotonin transporter of rat cerebral cortex. It counts as tissue-based.
The target of assay [4] is Sodium-dependent dopamine transporter (Rattus norvegicus, UniProt P23977). The assay is described as follows: Displacement of [3H]GBR-12935 from dopamine transporter of rat caudate-putamen. It counts as tissue-based.
The target of assay [5] is Monoamine transporters; serotonin & dopamine (Rattus norvegicus) (UniProt P31652+P23977). The assay can be described thus: Selectivity for inhibition of serotonin and dopamine transporters. It counts as protein assay.

Bounds are passed on as bounds.

This note sets out measurements from ChEMBL document CHEMBL1144325, “Synthesis and monoamine transporter affinity of new 2beta-carbomethoxy-3beta-[4-(substituted thiophenyl)]phenyltropanes: discovery of a selective SERT antagonist with picomolar potency” (Bioorg Med Chem Lett, 2005).

Sequence of Sodium-dependent dopamine transporter (P23977 whole entry): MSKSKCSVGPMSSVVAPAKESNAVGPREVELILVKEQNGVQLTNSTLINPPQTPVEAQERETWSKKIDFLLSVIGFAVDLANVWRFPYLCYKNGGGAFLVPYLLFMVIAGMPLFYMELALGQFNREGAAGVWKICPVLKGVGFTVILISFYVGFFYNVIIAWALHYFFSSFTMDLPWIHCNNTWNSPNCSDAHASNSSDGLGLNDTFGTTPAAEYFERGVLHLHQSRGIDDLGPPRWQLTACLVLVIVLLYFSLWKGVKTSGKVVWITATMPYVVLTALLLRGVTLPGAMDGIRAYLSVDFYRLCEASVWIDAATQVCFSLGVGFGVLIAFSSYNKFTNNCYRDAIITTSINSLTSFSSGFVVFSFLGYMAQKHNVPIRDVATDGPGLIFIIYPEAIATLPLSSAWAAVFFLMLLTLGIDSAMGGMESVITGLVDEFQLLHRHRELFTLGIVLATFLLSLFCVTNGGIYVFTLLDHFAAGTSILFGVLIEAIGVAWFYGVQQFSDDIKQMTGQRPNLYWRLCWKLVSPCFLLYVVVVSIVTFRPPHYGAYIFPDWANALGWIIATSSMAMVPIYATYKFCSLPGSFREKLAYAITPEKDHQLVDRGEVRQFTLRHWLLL
Sequence of Monoamine transporters; serotonin & dopamine (Rattus norvegicus) (P23977 whole entry, looked up): as the sequence (P23977 whole entry) above
Sequence of Monoamine transporters; serotonin & dopamine (Rattus norvegicus) (P31652 whole entry, looked up): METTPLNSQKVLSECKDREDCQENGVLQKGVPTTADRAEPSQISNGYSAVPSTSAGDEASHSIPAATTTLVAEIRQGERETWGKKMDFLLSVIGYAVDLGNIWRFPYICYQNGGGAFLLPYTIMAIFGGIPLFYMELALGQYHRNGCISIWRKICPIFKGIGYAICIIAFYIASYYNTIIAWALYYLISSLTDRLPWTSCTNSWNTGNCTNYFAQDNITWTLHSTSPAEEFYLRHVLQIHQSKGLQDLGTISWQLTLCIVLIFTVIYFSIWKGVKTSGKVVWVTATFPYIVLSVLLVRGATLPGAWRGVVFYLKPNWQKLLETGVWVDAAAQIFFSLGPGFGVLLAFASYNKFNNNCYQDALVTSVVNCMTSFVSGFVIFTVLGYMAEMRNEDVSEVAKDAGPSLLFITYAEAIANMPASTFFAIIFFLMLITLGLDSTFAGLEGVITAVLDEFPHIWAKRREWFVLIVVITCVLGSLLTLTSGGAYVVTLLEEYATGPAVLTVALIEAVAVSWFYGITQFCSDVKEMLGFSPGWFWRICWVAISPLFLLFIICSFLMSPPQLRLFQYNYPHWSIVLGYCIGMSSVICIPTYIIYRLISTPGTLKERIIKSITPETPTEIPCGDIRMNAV
Sequence of Sodium-dependent serotonin transporter (P31652 whole entry): as the sequence (P31652 whole entry, looked up) above
Sequence of Norepinephrine transporter (Q9WTR4 whole entry): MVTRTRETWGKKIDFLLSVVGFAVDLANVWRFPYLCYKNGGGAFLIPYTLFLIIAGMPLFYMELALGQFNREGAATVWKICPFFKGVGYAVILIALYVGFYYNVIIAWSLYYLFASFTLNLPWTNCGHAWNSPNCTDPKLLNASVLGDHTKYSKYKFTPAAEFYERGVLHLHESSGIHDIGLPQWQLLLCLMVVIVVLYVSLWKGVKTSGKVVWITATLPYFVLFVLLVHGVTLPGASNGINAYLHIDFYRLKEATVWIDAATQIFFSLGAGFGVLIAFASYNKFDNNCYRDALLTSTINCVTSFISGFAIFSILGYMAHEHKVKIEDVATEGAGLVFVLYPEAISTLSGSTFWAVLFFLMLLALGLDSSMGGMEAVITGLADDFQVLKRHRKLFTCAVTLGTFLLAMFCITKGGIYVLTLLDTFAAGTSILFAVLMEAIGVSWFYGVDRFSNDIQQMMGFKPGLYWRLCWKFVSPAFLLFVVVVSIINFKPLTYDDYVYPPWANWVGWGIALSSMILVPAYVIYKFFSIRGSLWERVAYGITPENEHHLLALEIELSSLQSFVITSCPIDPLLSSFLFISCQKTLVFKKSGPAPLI

Take `COC(=O)C1C(c2ccc(-c3ccc(N)s3)cc2)CC2CCC1N2C` (configuration not stated): the Ki was greater than 30000 nM in assay [1], 64.7 nM in assay [3] and greater than 10000 nM in assay [4]. Also, the Ratio in assay [2] was greater than 464; in assay [5] it was greater than 155.
On to `COC(=O)C1C(c2ccc(-c3ccc(Cl)s3)cc2)CC2CCC1N2C` (configuration not stated), for which the inhibition constant (Ki) was 311 nM in assay [1], 0.64 nM in assay [3] and 4.42 nM in assay [4]. Besides, the Ratio in assay [2] was 486; in assay [5], 6.9.
For the compound `COC(=O)C1C(c2ccc(-c3ccc(I)s3)cc2)CC2CCC1N2C` (configuration not stated), the values for the Ki in assay [1], in assay [3] and in assay [4] were 1140 nM, 4.56 nM and 22.1 nM, respectively. In addition, the Ratio in assay [2] is 249; in assay [5] it was 4.9.
For `COC(=O)C1C(c2ccc(-c3ccc(Br)s3)cc2)CC2CCC1N2C` (configuration not stated) the same measures were 324 nM, 0.38 nM, 6.43 nM, 853 and 17.
`COC(=O)C1C(c2ccc(I)cc2)CC2CCC1N2C` (configuration not stated): the figures for the Ratio in assay [2] and in assay [5] were 6.1 and 2.1, respectively.
With `COC(=O)C1C(c2ccc(-c3cscc3Br)cc2)CC2CCC1N2C` (configuration not stated), the results for the Ki in assay [1], in assay [3] and in assay [4] were greater than 10000 nM, 4.02 nM and 183 nM, respectively. Besides, the results for the Ratio in assay [2] and in assay [5] were greater than 2490 and 46, respectively.
`COC(=O)C1C2CCC(CC1c1ccc(-c3ccsc3)cc1)N2` (configuration not stated): the figures for the Ki in assay [1], in assay [3] and in assay [4] were 39 nM, 0.23 nM and 6.4 nM, respectively. Further, the Ratio worked out at 170 in assay [2] and 28 in assay [5].
For `COC(=O)C1C(c2ccc(-c3cc([N+](=O)[O-])c([N+](=O)[O-])s3)cc2)CC2CCC1N2C` (configuration not stated), the Ki in assay [1] was greater than 10000 nM; in assay [3], 5000 nM; in assay [4] it was greater than 30000 nM. Further, the Ratio in assay [2] is greater than 2; in assay [5], greater than 6.
The like results for `COC(=O)C1C(c2ccc(-c3cccs3)cc2)CC2CCC1N2C` (configuration not stated) were, in that order, 158 nM, 0.15 nM, 52 nM, 1050 and 346.
For `COC(=O)C1C2CCC(CC1c1ccc(-c3cccs3)cc1)N2` (configuration not stated) the same measures were 75.3 nM, 0.11 nM, 12.2 nM, 685 and 111.
For `COC(=O)C1C(c2ccc(-c3ccsc3)cc2)CC2CCC1N2C` (configuration not stated) the same measures were 189 nM, 0.017 nM, 12.1 nM, 11100 and 710.
